Several values for one entry are separate records, joined by “and”; a condition that tells them apart may be missing. Equal values may be shown once. Read-outs that look alike come from different tables or passages of the source.
Tests used:
recombinant hMAO-A = target: T1, recombinant hMAO-A (Homo sapiens, UniProt P21397); test: MAO-A inhibition assay (kynuramine substrate); assay type: biochemical; settings: for remaining activity at 1 µM: mean ± standard error of duplicate experiments; for IC50: mean ± standard error of duplicates, reference compounds after 30 min preincubation with enzyme
T1 construct: purchased Sigma-Aldrich
T1 sequence (P21397 1-527): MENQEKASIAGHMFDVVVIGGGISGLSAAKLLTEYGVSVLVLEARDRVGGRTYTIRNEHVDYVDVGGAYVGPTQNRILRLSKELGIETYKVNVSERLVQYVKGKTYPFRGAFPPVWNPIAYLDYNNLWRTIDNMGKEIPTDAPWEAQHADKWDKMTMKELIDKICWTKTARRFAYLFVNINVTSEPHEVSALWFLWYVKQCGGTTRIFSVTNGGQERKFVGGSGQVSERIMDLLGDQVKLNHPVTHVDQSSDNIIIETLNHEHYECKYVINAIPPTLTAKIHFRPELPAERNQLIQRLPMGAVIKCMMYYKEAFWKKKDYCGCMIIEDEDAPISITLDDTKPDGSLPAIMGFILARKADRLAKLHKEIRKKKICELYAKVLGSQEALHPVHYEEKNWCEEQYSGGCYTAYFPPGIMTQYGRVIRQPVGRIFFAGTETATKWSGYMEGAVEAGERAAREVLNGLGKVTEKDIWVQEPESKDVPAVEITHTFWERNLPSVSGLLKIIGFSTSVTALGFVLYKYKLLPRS
Protocol: (§1) Recombinant hMAO-A and hMAO-B activities were assayed while using kynuramine (0.06 mM) and benzylamine (0.3 mM) as substrates, respectively, as described previously. […] AChE activity was measured using Type VI-S from Electrophorus electricus in the presence of 0.5 mM 5,5’-dithiobis(2-nitrobenzoic acid) and 0.5 mM acetylthiocholine iodide, as described previously. Enzymes and chemicals were purchased from Sigma–Aldrich (St. Louis, MO, USA).
AChE inhibitory activities were also determined, except at a concentration of 10 µM. […] Kinetic experiments were carried out at five substrate and three inhibitor concentrations.

MAO-B = target: T2, MAO-B (Homo sapiens, UniProt P27338); test: biochemical; settings: for SI (selectivity index, ratio of IC50 MAO-A to MAO-B): MAO-A vs. MAO-B IC50 ratio; for IC50: mean ± standard error of duplicates, reference compounds after 30 min preincubation with enzyme, read-out: IC50 (µM) MAO-B; for remaining activity at 1 µM: read-out: Residual Activity (%) MAO-B (1.0 µM)
T2 construct: purchased Sigma-Aldrich
T2 sequence (P27338 1-520): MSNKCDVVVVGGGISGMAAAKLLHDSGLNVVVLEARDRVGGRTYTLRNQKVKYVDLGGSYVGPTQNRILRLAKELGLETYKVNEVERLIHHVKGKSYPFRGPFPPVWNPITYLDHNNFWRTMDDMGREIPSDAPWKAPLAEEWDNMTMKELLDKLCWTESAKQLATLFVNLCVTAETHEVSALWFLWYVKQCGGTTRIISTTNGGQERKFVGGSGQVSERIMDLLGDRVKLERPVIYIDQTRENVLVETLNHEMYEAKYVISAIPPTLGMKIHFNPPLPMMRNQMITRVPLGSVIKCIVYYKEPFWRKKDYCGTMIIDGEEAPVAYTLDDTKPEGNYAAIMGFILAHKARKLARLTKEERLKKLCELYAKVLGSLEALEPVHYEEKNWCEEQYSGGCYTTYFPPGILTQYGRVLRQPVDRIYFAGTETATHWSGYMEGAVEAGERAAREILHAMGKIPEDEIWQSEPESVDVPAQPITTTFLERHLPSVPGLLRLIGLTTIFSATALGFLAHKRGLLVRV
Protocol: as §1, with “USA). […]” for “USA).”

[1] = target: T3, AChE (Type VI-S from Electrophorus electricus) (Electrophorus electricus, UniProt O42275); test: AChE inhibition assay (DTNB / acetylthiocholine iodide); assay type: biochemical; settings: for remaining activity at 10 µM / Residual Activity (%) AChE (10 µM): mean ± standard error of duplicate experiments
T3 construct: purchased Sigma-Aldrich Type VI-S
Protocol: AChE activity was measured using Type VI-S from Electrophorus electricus in the presence of 0.5 mM 5,5’-dithiobis(2-nitrobenzoic acid) and 0.5 mM acetylthiocholine iodide, as described previously. Enzymes and chemicals were purchased from Sigma–Aldrich (St. Louis, MO, USA).
Kinetic experiments were carried out at five substrate and three inhibitor concentrations.

[2] = compound at 1.0 µM, read-out: Residual Activity (%) MAO-A (1.0 µM)
[3] = compound at 10 µM, read-out: Residual Activity (%) AChE (10 µM)
[4] = read-out: Residual Activity (%) MAO-A (1.0 µM), compound at 1.0 µM

T3 sequence (O42275 24-633): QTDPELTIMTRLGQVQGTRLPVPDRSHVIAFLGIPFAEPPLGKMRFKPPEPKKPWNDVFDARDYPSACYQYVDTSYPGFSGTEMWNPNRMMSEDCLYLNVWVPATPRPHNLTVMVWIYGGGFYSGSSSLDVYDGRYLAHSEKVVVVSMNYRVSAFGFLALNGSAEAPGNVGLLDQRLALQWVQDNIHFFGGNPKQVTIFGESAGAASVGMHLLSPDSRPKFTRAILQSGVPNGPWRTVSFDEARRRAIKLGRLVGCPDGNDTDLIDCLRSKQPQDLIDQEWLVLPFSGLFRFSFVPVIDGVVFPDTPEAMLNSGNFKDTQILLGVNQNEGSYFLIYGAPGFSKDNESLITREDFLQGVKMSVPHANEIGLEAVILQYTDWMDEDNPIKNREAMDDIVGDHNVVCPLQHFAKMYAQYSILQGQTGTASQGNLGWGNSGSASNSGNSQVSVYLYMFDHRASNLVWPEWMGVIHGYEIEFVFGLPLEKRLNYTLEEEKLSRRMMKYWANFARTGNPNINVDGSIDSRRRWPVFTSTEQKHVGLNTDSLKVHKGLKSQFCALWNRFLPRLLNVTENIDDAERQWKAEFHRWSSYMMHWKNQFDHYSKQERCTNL

With `COc1ccc(C(=O)/C=C/c2ccc(O/N=C(\C)c3ccccc3)cc2)cc1` [COE-1] the remaining activity at 1 µM (recombinant hMAO-A; [2]) was 94.4 ± 2.99%, the IC50 (recombinant hMAO-A) was > 10 µM and the “SI (selectivity index, ratio of IC50 MAO-A to MAO-B)” value (MAO-B) was >35.7. The IC50 (MAO-B) was 0.28 ± 0.041 µM, the remaining activity at 1 µM (MAO-B) was 29.9 ± 5.25% and the IC50 [1] was > 40 µM. The remaining activity at 10 µM [1, 3] was 77.6 ± 2.64%.

For `COc1ccc(C(=O)/C=C/c2ccc(O/N=C(\C)c3ccc(OC)cc3)cc2)cc1` [COE-2], the remaining activity at 1 µM (recombinant hMAO-A; [2]) was 69.9 ± 0.51%, the IC50 (recombinant hMAO-A) was > 10 µM and the “SI (selectivity index, ratio of IC50 MAO-A to MAO-B)” value (MAO-B) was >38.5. For the same compound, the IC50 (MAO-B) was 0.26 ± 0.055 µM, the remaining activity at 1 µM (MAO-B) was 27.6 ± 2.44% and the IC50 [1] was 15.2 ± 0.55 µM. For the same compound, the remaining activity at 10 µM [1, 3] was 66.5 ± 3.36%.

`COc1ccc(C(=O)/C=C/c2ccc(ON=C(c3ccccc3)c3ccccc3)cc2)cc1` [COE-3] was tested, and the remaining activity at 1 µM (recombinant hMAO-A; [2]) was 87.3 ± 1%, the IC50 (recombinant hMAO-A) was > 10 µM and the “SI (selectivity index, ratio of IC50 MAO-A to MAO-B)” value (MAO-B) was >208.3. The IC50 (MAO-B) was 0.048 ± 0.021 µM, the remaining activity at 1 µM (MAO-B) was 21.6 ± 4.88% and the IC50 [1] was > 40 µM. For the same compound, the remaining activity at 10 µM [1, 3] was 77.1 ± 0.66%.

`COc1ccc(C(=O)/C=C/c2ccc(O/N=C3\CCc4ccccc43)cc2)cc1` [COE-4] was tested, and the IC50 (recombinant hMAO-A) was 19.3 ± 0.21 µM, the remaining activity at 1 µM (recombinant hMAO-A; [4]) was 83.7 ± 1.54% and the “SI (selectivity index, ratio of IC50 MAO-A to MAO-B)” value (MAO-B) was 32.7. For the same compound, the IC50 (MAO-B) was 0.059 ± 0.012 µM, the remaining activity at 1 µM (MAO-B) was 4.31 ± 1.22% and the IC50 [1] was > 40 µM. It also gave a remaining activity at 10 µM ([1]; read-out: Residual Activity (%) AChE (10 µM), compound at 10 µM) of 62.1 ± 1.51%.

For `C/C(=N\Oc1ccc(/C=C/C(=O)c2ccccc2)cc1)c1ccc(F)cc1` [COE-5], the remaining activity at 1 µM (recombinant hMAO-A; [2]) was 95.1 ± 2.68%, the IC50 (recombinant hMAO-A) was > 10 µM and the “SI (selectivity index, ratio of IC50 MAO-A to MAO-B)” value (MAO-B) was >8.9. For the same compound, the IC50 (MAO-B) was 1.12 ± 0.1 µM, the remaining activity at 1 µM (MAO-B) was 57.5 ± 7.01% and the IC50 [1] was 7.06 ± 1.5 µM. For the same compound, the “Residual Activity (%) AChE (10 µM)” value ([1]; compound at 10 µM) was 46.5 ± 0.71% and the remaining activity at 10 µM [1, 3] was < 50%.

`O=C(/C=C/c1ccc(ON=C(c2ccccc2)c2ccccc2)cc1)c1ccc(F)cc1` [COE-7] was tested, and the remaining activity at 1 µM (recombinant hMAO-A; [2]) was 91.7 ± 6.43%, the IC50 (recombinant hMAO-A) was 11 ± 1.22 µM and the “MAO-B potency relative to clorgyline (times more potent)” value (MAO-B) was 68 times and 67 times. For the same compound, the “MAO-B potency relative to lazabemide (times more potent)” value (MAO-B) was 1.5 times, the “SI (selectivity index, ratio of IC50 MAO-A to MAO-B)” value (MAO-B) was 392.9 and the IC50 (MAO-B) was 0.028 ± 0.0016 µM. For the same compound, the remaining activity at 1 µM (MAO-B) was 2.48 ± 0.15%, the IC50 [1] was > 40 µM and the remaining activity at 10 µM [1, 3] was 76.2 ± 1.02%.

In the case of `COc1cccc(C(=O)/C=C/c2ccc(O/N=C(\C)c3cccc4ccccc34)cc2)c1` [COE-8], the remaining activity at 1 µM (recombinant hMAO-A; [2]) is reported as 68.6 ± 2.74%, the IC50 (recombinant hMAO-A) is reported as 7.68 ± 0.34 µM and the “SI (selectivity index, ratio of IC50 MAO-A to MAO-B)” value (MAO-B) is reported as 182.9. The remaining activity at 1 µM (MAO-B; compound at 1.0 µM, mean ± standard error of duplicate experiments) was 10.5 ± 0.21%, the IC50 (MAO-B) was 0.042 ± 0.021 µM and the IC50 [1] was > 40 µM. For the same compound, the remaining activity at 10 µM [1, 3] was 70.7 ± 3.26%.

In the case of `C/C(=N\Oc1ccc(/C=C/C(=O)c2cccc3ccccc23)cc1)c1cccs1` [COE-9], the IC50 (recombinant hMAO-A) is reported as 7.64 ± 0.16 µM, the remaining activity at 1 µM (recombinant hMAO-A; [4]) is reported as 71.4 ± 0.51% and the “SI (selectivity index, ratio of IC50 MAO-A to MAO-B)” value (MAO-B) is reported as 20.6. For the same compound, the IC50 (MAO-B) was 0.037 ± 0.0057 µM, the remaining activity at 1 µM (MAO-B) was 9.91 ± 1.83% and the IC50 [1] was 8.39 ± 2.14 µM. For the same compound, the “Residual Activity (%) AChE (10 µM)” value ([1]; compound at 10 µM) was 46.7 ± 4.27% and the remaining activity at 10 µM [1, 3] was < 50%.

`COc1ccc(/C=C/C(=O)c2ccc(ON=C3CCCCC3)cc2)cc1` [COE-10] was tested, and the remaining activity at 1 µM (recombinant hMAO-A; [2]) was 67.1 ± 2.02%, the IC50 (recombinant hMAO-A) was > 10 µM and the “SI (selectivity index, ratio of IC50 MAO-A to MAO-B)” value (MAO-B) was >47.6. It also gave an IC50 (MAO-B) of 0.21 ± 0.01 µM, a remaining activity at 1 µM (MAO-B) of 21.6 ± 1.22% and an IC50 [1] of 9.42 ± 0.031 µM. The “Residual Activity (%) AChE (10 µM)” value ([1]; compound at 10 µM) was 47.6 ± 0.93% and the remaining activity at 10 µM [1, 3] was < 50%.

For `COc1ccc(/C=C/C(=O)c2ccc(O/N=C(\C)c3ccc(F)cc3)cc2)cc1` [COE-11], the remaining activity at 1 µM (recombinant hMAO-A; [2]) was 86 ± 6.58%, the IC50 (recombinant hMAO-A) was > 10 µM and the “SI (selectivity index, ratio of IC50 MAO-A to MAO-B)” value (MAO-B) was >5.5. For the same compound, the IC50 (MAO-B) was 1.82 ± 0.022 µM, the remaining activity at 1 µM (MAO-B) was 68.5 ± 1.83% and the IC50 [1] was > 40 µM. The remaining activity at 10 µM [1, 3] was 87.2 ± 0.47%.

From publication PMC7288026, “Novel Class of Chalcone Oxime Ethers as Potent Monoamine Oxidase-B and Acetylcholinesterase Inhibitors” (Molecules, 2020)
